From patent publication US10954196B2, “Method for producing 5-hydroxy-1H-imidazole-4 carboxamide 3/4 hydrate” (FUJIFILM Corporation, priority 2017, dated 2021)

Assays:
[1] = Test Example 3: coloring stability during storage (unwashed product); type: physicochemical; conditions: light shielding, 60° C., 75% relative humidity, hydrate; for Color difference (ΔE): before vs after storage for 5 days, spectrophotometric color difference meter, reflection method; for Tone: visually observed after storage for 5 days, air atmosphere
[2] = Test Example 1: test of coloring stability during storage (washed product); type: physicochemical; conditions: visually observed after storage for 5 days, air atmosphere, light shielding, 60° C., 75% relative humidity, hydrate
Experimental: About 1 g of the test substance was placed in a storage bag formed by stacking two 0.04 mm-thick polyethylene bags, sealed in each polyethylene bag, and stored for 5 days in an air atmosphere under the conditions of light shielding, 60° C., and 75% relative humidity. The tone of the test substance after the test was visually observed. In addition, a change in the color of the crystal before and after the test was measured with a spectrophotometric color difference meter to determine the color difference. Colorimeter: spectrophotometric color difference meter SE2000 manufactured by Nippon Denshoku Industries Co., Ltd. Measurement method: reflection method

[3] = as disclosed in Test Example 1 and Test Example 2 of WO2009/035168A; cited from earlier work

| Structure (SMILES) | Color difference (ΔE) [1] | Tone [1] | Tone [2] | Coloring stability (color change) [3] |
| --- | --- | --- | --- | --- |
| NC(=O)c1nc[nH]c1O.O [Comparative Example 1, 5-hydroxy-1H-imidazole-4-carboxamide•¾ hydrate, reference compound] | 62.4 | Black blue | – | – |
| NC(=O)c1nc[nH]c1O.O [Comparative Example 2, 5-hydroxy-1H-imidazole-4-carboxamide•¾ hydrate, reference compound] | 51.4 | Black blue | – | – |
| NC(=O)c1nc[nH]c1O.O [Example 2, 5-hydroxy-1H-imidazole-4-carboxamide•¾ hydrate] | 3.1 | White | White | – |
| NC(=O)c1nc[nH]c1O.O [Example 3, 5-hydroxy-1H-imidazole-4-carboxamide•¾ hydrate] | 1.1 | White | White | – |
| NC(=O)c1nc[nH]c1O.O [Example 4, 5-hydroxy-1H-imidazole-4-carboxamide•¾ hydrate] | 2.3 | White | White | – |
| NC(=O)c1nc[nH]c1O.O [Example 5, 5-hydroxy-1H-imidazole-4-carboxamide•¾ hydrate] | 4.1 | White | White | – |
| NC(=O)c1nc[nH]c1O.O [Example 7, 5-hydroxy-1H-imidazole-4-carboxamide•¾ hydrate] | 1.0 | White | White | – |
| NC(=O)c1nc[nH]c1O.O [Example 8, 5-hydroxy-1H-imidazole-4-carboxamide•¾ hydrate] | 1.4 | White | White | – |
| NC(=O)c1nc[nH]c1O.O [Example 9, 5-hydroxy-1H-imidazole-4-carboxamide•¾ hydrate] | 0.9 | White | White | – |
| NC(=O)c1nc[nH]c1O.O [Example 10, 5-hydroxy-1H-imidazole-4-carboxamide•¾ hydrate] | 2.2 | White | White | – |
| NC(=O)c1nc[nH]c1O.O [Example 11, 5-hydroxy-1H-imidazole-4-carboxamide•¾ hydrate] | 1.6 | White | White | – |
| NC(=O)c1nc[nH]c1O.O [Example 12, 5-hydroxy-1H-imidazole-4-carboxamide•¾ hydrate] | – | White | White | – |
| NC(=O)c1nc[nH]c1O [compound A, 5-Hydroxy-1H-imidazole-4-carboxamide] | – | – | – | changed color to indigo blue or blue |
| Cl.NC(=O)c1nc[nH]c1O [hydrochloride of the compound A] | – | – | – | stable |
